Measurements reported in US10717704B2, “Inhibitors of creatine transport and uses thereof” (Rgenix, Inc., priority 2014, dated 2020).
Values belong to the compound of their own block, whether it stands above or below them.

Legend:
creatine transporter = target: T1, creatine transporter (Mus musculus, UniProt Q8VBW1); assay: In vivo creatine transporter inhibition assay (creatine-d3 transport in heart tissue); design: species or system C57Bl6 male mice; settings: i.p. 250 mg/kg β-GPA equivalent (1.91 mmol/kg), creatine-d3 1 mg/kg i.p. 7 minutes after drug, hearts after one hour, relative to vehicle control, mean of three hearts
T1 construct: from tissue; host or cells: heart of C57Bl6 male mice (in vivo dosing)
T1 sequence (Q8VBW1 1-635): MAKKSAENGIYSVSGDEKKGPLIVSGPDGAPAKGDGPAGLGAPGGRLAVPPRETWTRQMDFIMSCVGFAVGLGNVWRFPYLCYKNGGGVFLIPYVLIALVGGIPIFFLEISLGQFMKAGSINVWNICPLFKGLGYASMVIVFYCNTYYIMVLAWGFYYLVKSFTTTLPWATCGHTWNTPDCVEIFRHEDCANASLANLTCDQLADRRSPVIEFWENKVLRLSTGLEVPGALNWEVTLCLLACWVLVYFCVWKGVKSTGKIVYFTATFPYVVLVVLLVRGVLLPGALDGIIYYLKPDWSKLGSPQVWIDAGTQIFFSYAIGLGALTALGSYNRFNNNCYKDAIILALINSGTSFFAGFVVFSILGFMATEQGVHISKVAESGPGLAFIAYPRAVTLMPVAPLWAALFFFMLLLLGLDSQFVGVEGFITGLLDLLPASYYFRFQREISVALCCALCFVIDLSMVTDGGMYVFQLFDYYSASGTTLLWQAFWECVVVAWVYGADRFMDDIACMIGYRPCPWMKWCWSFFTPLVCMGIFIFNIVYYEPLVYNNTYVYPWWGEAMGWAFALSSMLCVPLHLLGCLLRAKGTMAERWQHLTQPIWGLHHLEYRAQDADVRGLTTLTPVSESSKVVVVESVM
Procedure: Soluble compounds were formulated in saline solution (0.9% NaCl). […] Studies were performed on 6-7 week old C57Bl6 male mice, receiving a regular diet (Purina 5001, Research Diet) and on a regular sleep rhythm (12 h night/day schedule). Experiments were performed ˜6 h after exposing to daylight. Mice were weighed and randomly divided into groups of 3 mice per group and injected i.p. with 100-200 μL of dosing solution to deliver 250 mg/kg (50 mg/mL or 381 mM) β-GPA equivalent (i.e. 1.91 mmol/kg) along with a vehicle control. […] Volumes were adjusted based on the weight of the mice to reach a final dose of 1 mg/kg. After one hour, mice were euthanized, hearts were perfused with PBS, removed, snap-frozen in liquid nitrogen, and stored at −80° C. until further processing. Mouse hearts were thawed and weighed into 1.5 mL Eppendorf conical tubes. Typical heart weights range from […]. […] The samples were then placed in a MiniBeadBeater (BioSpec Products, Inc.) for 2 minutes to disrupt the tissue and homogenize the sample. Aliqouts (20 μL) of the homogenized hearts were transferred to a 96-well microtiter plate. […] Supernatant (900 μL) was transferred to 96-well deep well plate for analysis. Calibration standards, blanks, and quality control samples are prepared from control mouse hearts homogenized as noted above. Aliquots of homogenate were then spiked with known quantities of creatine-d3 (CDN Isotopes, Pointe-Claire, Quebec) or solvent, and processed along with the samples as noted above. Analysis was conducted by LC-MS/MS using an Acquity UPLC (Waters Corp., Milford, Mass.)/Triple Quad 5500 (AB Sciex, Framingham, Mass.) system. […] A binary gradient of acetonitrile and 10 mM ammonium acetate was used to elute analytes from the column. The mass spectrometer was operated in positive ion electrospray in Multiple Reaction Monitoring mode for the following mass transitions: Data were collected and processed using Analyst 1.6.2 (AB Sciex, Framingham, Mass.). […] Data was report as μg of creatine-d3 per gram of heart. Mean values and standard deviations were calculated from three heart samples and percent creatine-d3 transport inhibition was reported relative to vehicle control.

[1] = tested on: LvM3b cells with CKB knockdown; assay: Liver metastasis of CKB knockdown LvM3b cells pre-treated with metabolite; format: in vivo, mice
Procedure: (§1) 5×10^5 highly metastatic cancer cells were injected into the portal circulation of immunodeficient mice. One day after inoculation of cancer cells, mice were injected indicated amounts of drug in 300 μL PBS. Treatment was continued daily and metastatic progression was monitored by bioluminescent imaging until the mice were euthanized at which point livers were excised for bioluminescent imaging and gross histology. Where indicated, cancer cells were pre-treated with indicated amounts of compound for 48 hrs before injection into immunodeficient mice.
CKB is known to regulate the reservoir of rapidly mobilized high-energy phosphates in tissues such as the brain and kidneys by catalyzing the transfer of a high-energy phosphate group from phosphocreatine to ADP, yielding ATP and creatine. It was hypothesized that CKB generation of ATP from phosphocreatine might provide colon cancer cells with an energetic advantage during hepatic colonization. […] Metastatic burden was monitored by bioluminescent imaging and mice euthanized 21 days after injection.
Similar studies were done to determine whether creatine and phosphocreatine could rescue the phenotype of seen upon CKB knock-down. […] Liver metastasis was monitored by bioluminescent imaging and mice were euthanized as described above.

LvM3b cells = assay: Liver metastasis assay, LvM3b colon cancer cells, drug treatment of mice; format: in vivo, NOD-SCID mice; settings: for metastatic colonization (bioluminescent measurements of liver metastasis): 5×10^5 LvM3b cells, treated daily for two weeks, intra-peritoneal
Procedure: One day after inoculation of cancer cells, mice were injected indicated amounts of drug in 300 μL PBS. Treatment was continued daily and metastatic progression was monitored by bioluminescent imaging until the mice were euthanized at which point livers were excised for bioluminescent imaging and gross histology. Where indicated, cancer cells were pre-treated with indicated amounts of compound for 48 hrs before injection into immunodeficient mice. […] The treatment regime started one day after inoculation of tumor cells and continued until the mice were euthanized. […] Treatment regime were as that for cyclocreatine treatment. Finally, assays were carried out to determine the impact of small-molecule inhibition of CKB and restriction of creatine availability on colon cancer metastasis. Cyclocreatine, which resembles phosphocreatine, is a transition-state analog for creatine kinases. […] The mice were then euthanized and livers excised for ex vivo imaging at the end of the treatment. […] Similar assays were carried out using a creatine transporter inhibitor beta-guanidinopropionic acid (β-GPA). […] In this example, assays were carried out to confirm the therapeutic potential of targeting the creatine transporter channel SLC6a8 by administering the small molecule β-GPA, which is an inhibitor of SLC6a8. […] To confirm this therapeutic effect, mice injected with LvM3b colon cancer cells we treated with either β-GPA or control vehicle (PBS) via intra-peritoneal injection daily for three weeks (FIG. 2). The mice were euthanized at three weeks and liver extracted for bioluminescent imaging and gross histology.

[2] = tested on: PANC1 pancreatic cancer cells; assay: Survival of disseminated PANC1 cells in vivo after β-GPA pre-treatment; design: species or system immunodeficient mice
Procedure: as §1, with “One” for “5×10^5 highly metastatic cancer cells were injected into the portal circulation of immunodeficient mice. One”

CKB = CKB (Homo sapiens, UniProt P12277); settings: read-out: ki (inhibitor of CKB); cited from earlier work
Sequence of CKB (P12277 whole entry): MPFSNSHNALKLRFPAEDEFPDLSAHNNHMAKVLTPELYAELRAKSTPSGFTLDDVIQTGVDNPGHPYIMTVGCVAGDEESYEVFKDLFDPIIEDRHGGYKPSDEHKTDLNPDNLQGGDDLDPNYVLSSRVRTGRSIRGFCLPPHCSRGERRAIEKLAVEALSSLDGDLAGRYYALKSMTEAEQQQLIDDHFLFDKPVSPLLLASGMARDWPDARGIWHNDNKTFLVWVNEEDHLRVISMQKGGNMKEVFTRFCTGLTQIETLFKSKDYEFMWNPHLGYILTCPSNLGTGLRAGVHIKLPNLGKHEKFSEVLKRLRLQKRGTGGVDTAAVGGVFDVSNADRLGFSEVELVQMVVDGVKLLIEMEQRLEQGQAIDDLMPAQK

SMILES: CN(CC(=O)O)C(=N)N [creatine]
rescue of metastasis suppression upon CKB knockdown ([1]; LvM3b cells with CKB knockdown pre-treated with 10 uM, day 21): rescued metastasis suppression

SMILES: N=C(N)NCCC(=O)O [β-GPA, beta-guanidinopropionic acid]
metastatic colonization (bioluminescent measurements of liver metastasis) (LvM3b cells): significantly reduced metastatic colonization
colon cancer metastasis to the liver (LvM3b cells; LvM3b cells, daily treatment for three weeks, bioluminescent imaging and gross anatomical examination): significant reduction in colon cancer metastasis to the liver
average photon flux ratio (bioluminescence imaging) (LvM3b cells; LvM3b cells, β-GPA intra-peritoneal daily for three weeks, control group about 800): ~100
average photon flux ratio (bioluminescence imaging) ([2]; 5×10^5 PANC1 cells pre-treated 48 hours with 10 mM, day 1 signal normalized to day zero, control group about 2.7): ~1.6
tumor burden of pancreatic cancer cells in vivo ([2]; PANC1 cells pre-treated 48 hours with 10 mM, one day after injection): significant reduction in the tumor burden

SMILES: C[C@@H](CC(=O)O)NC(=N)N [Compound 220, (3S)-3-carbamimidamidobutanoic acid]
% Inhibition of Creatine-d3 Transport (creatine transporter): 1.4%

SMILES: NC1=NCCN1CC(=O)O [cyclocreatine]
Ki (CKB): 5 mM
metastatic colonization (bioluminescent measurements of liver metastasis) (LvM3b cells): significantly reduced metastatic colonization

SMILES: Nc1ncnc2c1ncn2[C@@H]1O[C@H](COP(=O)(O)OP(=O)(O)OP(=O)(O)O)[C@@H](O)[C@H]1O [ATP]
enhancement of suppressed metastasis phenotype in cells depleted of CKB ([1]; LvM3b with CKB knockdown pre-treated with 100 uM ATP, 21 days): more than 10 folds

SMILES: N=C(N)NC(CC(=O)O)C(F)(F)F (centres unmarked) [Compound 261, 3-guanidino-4,4,4-trifluorobutanoic acid]
% Inhibition of Creatine-d3 Transport (creatine transporter): 24.7%

SMILES: CCC(CC(=O)O)NC(=N)N (centres unmarked) [Compound 358, 3-carbamimidamidopentanoic acid]
% Inhibition of Creatine-d3 Transport (creatine transporter): 11.1%

Continued, values first:

inhibition at 250 mg/kg (creatine transporter; mouse, ip): 73.4%
SMILES: N=C(N)NCCC(=O)O [28 (β-GPA)]

% Inhibition of Creatine-d3 Transport (creatine transporter): 4.5%
SMILES: N=C(N)NC[C@H](N)C(=O)O [Compound 125, (2S)-2-amino-3-carbamimidamidopropanoic acid]

% Inhibition of Creatine-d3 Transport (creatine transporter): 79.0%
SMILES: C[C@H](CC(=O)O)NC(=N)N [Compound 219, (3R)-3-carbamimidamidobutanoic acid]

% Inhibition of Creatine-d3 Transport (creatine transporter): 39.1%
SMILES: N=C(N)N1CCC(C(=O)O)C1 (centres unmarked) [Compound 376, 1-carbamimidoylpyrrolidine-3-carboxylic acid]

% Inhibition of Creatine-d3 Transport (creatine transporter): 71.8%
SMILES: N=C(N)N1CC(C(=O)O)C1 [Compound 258, 1-carbamimidoylazetidine-3-carboxylic acid]
